Results from patent publication US12448388B2, “PRMT5 inhibitors and uses thereof” (Gilead Sciences, Inc., priority 2023, dated 2025).
Where “and” joins values, the source holds several entries; their conditions need not be identical. Equal entries are not always repeated. Where two headings read alike, the source gives them in different places.

Experiments:
hERG = target: T1, hERG (Homo sapiens, UniProt Q12809); assay: hERG assay (automated patch clamp, QPatch HT); type: cell-based; details: human, HEK293 cells stably expressing hERG, * = accurate hERG measurement may be limited by compound solubility
T1 construct: host or cells: HEK293
Protocol: Cell lines and cell culture: The HEK293 cell line stably expressing the hERG ion channel was provided from Charles River laboratories. Cells were maintained in tissue culture incubators per Charles River Laboratories SOP. Stocks were maintained in cryogenic storage. HEK293 cells were stably transfected with hERG cDNA.
Automated Patch Clamp Procedures: In preparation for a recording session, intracellular solution was loaded into the intracellular compartments of the QPlate and cell suspension was pipetted into the extracellular compartments. After establishment of a whole-cell configuration, membrane currents were recorded using up to 48 parallel patch clamp amplifiers in the QPatch HT® system. The current records were sampled at 2000 Hz and low-pass Bessel filtered at 400 Hz.
Valid whole-cell recordings met the following criteria: • 1. Membrane resistance ≥200 MΩ. • 2. Leak current 25% channel current or subtracted.
hERG Test Procedures: Onset and block of hERG current was measured using a stimulus voltage pattern consisting of a 500 ms prepulse to −40 mV (leakage subtraction), a 2-second activating pulse to +40 mV followed by a 2-second test pulse to −40 mV. The pulse pattern was repeated continuously at 10 s intervals from a holding potential of −80 mV. Peak tail current was measured during the −40 mV test pulse. Leakage current was calculated from the current amplitude evoked by the −40 mV prepulse and subtracted from the total membrane current record.
Data Analysis: Data acquisition and analysis were performed using the QPatch Assay Software (Sophion Bioscience A/S, Denmark). Steady state was defined by the limiting constant rate of change with time (linear time dependence). The steady state before and after test article application were used to calculate the percentage of current inhibited at each concentration. Run down, a time-dependent reduction of current amplitude, may be compensated for in the QPatch Assay Software using standard system tools. Concentration-response data was fit to an equation of the following form: […]
Where [Test] is the concentration of test compound, IC50 is the concentration of the test compound producing half-maximal inhibition, N is the Hill coefficient and % Block is the percentage of current inhibited at each concentration of the test article. Nonlinear least squares fits will be solved with the Solver add-in for Excel 2000 or later (Microsoft, Redmond, WA).

[1] = Hepatocyte stability assay, cynomolgus monkey; type: in vitro ADME
Protocol: BioreclamationIVT (Baltimore, MD) provided the cryopreserved hepatocytes, hepatocyte thawing (HT) medium, and Krebs-Henseleit buffer (KHB) medium. The stock solution concentration was 1 M in DMSO and was then diluted further in acetonitrile/water (1:1 v/v). All other chemicals were purchased from Sigma-Aldrich (St. Louis, MO) or Thermo Fisher Scientific (Waltham, MA).
The quench solution used to stop reactions in the hepatocyte incubations was comprised of 100% (v/v) acetonitrile. Internal Standard/Quench (IS/Q) solution used to stop reactions with the positive control also contained 200 nM Labetalol.
Metabolic Stability in Cryopreserved Hepatocytes: Test compounds, or the positive control metabolic substrate, was incubated in suspensions of cryopreserved hepatocytes at a final concentration of 1 μM. Vials containing cryopreserved hepatocytes were removed from liquid nitrogen and immediately immersed in a 37° C. water bath. The vials were swirled gently until the contents had thawed. They were then immediately emptied into 48 mL of pre-warmed thawing medium in a 50 mL conical tube. Cells remaining in the vial were re-suspended with 1.0 mL of pre-warmed thawing medium and added to the conical tube. The tube was capped and then gently inverted several times to re-suspend the hepatocytes. The cell suspension was centrifuged at 500×g for 10 minutes at room temperature and the supernatant discarded. The cell pellet was loosened by gently swirling the centrifuge tube. Non-supplemented KHB medium was added to obtain the appropriate target cell density. The viabilities of all cell preparations were ≥85%, assessed by Trypan blue dye exclusion.
For incubations, aliquots of hepatocyte suspension (250 μL containing a cell concentration of 2×10^6 cells/mL) were added to 250 μL of 2 μM substrate (test compound or positive control) in supplemented KHB in duplicate wells in a 24-well plate. Final concentration in the incubations were 1×10^6 cells/mL and 1 μM substrate. A cell-free control incubation (KHB only) was also included. The incubations were carried out with gentle shaking in a 37° C. incubator under a humid atmosphere of 95% air/5% CO2 (v/v). Aliquots (100 μL) were removed after 0, 1, 3, and 6 hours and added to 200 μL quenching solution. The samples were then placed on a shaker for 10 min followed by centrifugation at 3000×g for 20 min. The supernatant was transferred to a new plate and diluted with 100 μL of water to reduce the organic content and then placed on a shaker for 10 mins. Samples were injected and analyzed with methods described below.
Liquid Chromatography: Quantification of positive control and test compound was performed by analyte/internal standard peak area ratios (PAR) measured on a Thermo Scientific™ Q Exactive™ Hybrid Quadrupole-Orbitrap Mass Spectrometer MS/MS with an electrospray interface operating in positive ion mode. The mass spectrometer was coupled to a Dionex Ultimate® 3000 HPLC system. Samples (10 μL aliquots) were injected with a Leap Technologies HTC PAL autosampler. For positive control, the column used was a Thermo Scientific™ Hypersil GOLD™ HPLC column ([…], 50×2.1 mm). Mobile phase A consisted of 95% (v/v) water, 5% (v/v) acetonitrile, and contained 0.1% (v/v) formic acid (FA). Mobile phase B consisted of 95% (v/v) acetonitrile, 5% (v/v) water, and contained 0.1% (v/v) FA. Elution was achieved, at a flow rate of 0.5 mL/min, by a series of linear gradients: initial condition was 5% B at 0 min, isocratic for 20 seconds; then linear gradient to 95% B over 90 seconds, followed by isocratic for 60 seconds at 95% B, and re-equilibrated to initial conditions over 70 seconds.
Metabolic stabilities of positive control and test compound were determined by measuring the rates of disappearance of the parent with time by determining the % of parent remaining at time t (Ct) {Obach 1997}.
Data (% of parent remaining) were plotted on a semi-log scale and fitted using an exponential fit: […]

[2] = PK data (IV/PO) in Beagle dog; details: in vivo; for clearance: read-out: Observed CL (converted); for Vd: read-out: Vss; for bioavailability: PO 0.5 mg/Kg

T1 sequence (Q12809 whole entry): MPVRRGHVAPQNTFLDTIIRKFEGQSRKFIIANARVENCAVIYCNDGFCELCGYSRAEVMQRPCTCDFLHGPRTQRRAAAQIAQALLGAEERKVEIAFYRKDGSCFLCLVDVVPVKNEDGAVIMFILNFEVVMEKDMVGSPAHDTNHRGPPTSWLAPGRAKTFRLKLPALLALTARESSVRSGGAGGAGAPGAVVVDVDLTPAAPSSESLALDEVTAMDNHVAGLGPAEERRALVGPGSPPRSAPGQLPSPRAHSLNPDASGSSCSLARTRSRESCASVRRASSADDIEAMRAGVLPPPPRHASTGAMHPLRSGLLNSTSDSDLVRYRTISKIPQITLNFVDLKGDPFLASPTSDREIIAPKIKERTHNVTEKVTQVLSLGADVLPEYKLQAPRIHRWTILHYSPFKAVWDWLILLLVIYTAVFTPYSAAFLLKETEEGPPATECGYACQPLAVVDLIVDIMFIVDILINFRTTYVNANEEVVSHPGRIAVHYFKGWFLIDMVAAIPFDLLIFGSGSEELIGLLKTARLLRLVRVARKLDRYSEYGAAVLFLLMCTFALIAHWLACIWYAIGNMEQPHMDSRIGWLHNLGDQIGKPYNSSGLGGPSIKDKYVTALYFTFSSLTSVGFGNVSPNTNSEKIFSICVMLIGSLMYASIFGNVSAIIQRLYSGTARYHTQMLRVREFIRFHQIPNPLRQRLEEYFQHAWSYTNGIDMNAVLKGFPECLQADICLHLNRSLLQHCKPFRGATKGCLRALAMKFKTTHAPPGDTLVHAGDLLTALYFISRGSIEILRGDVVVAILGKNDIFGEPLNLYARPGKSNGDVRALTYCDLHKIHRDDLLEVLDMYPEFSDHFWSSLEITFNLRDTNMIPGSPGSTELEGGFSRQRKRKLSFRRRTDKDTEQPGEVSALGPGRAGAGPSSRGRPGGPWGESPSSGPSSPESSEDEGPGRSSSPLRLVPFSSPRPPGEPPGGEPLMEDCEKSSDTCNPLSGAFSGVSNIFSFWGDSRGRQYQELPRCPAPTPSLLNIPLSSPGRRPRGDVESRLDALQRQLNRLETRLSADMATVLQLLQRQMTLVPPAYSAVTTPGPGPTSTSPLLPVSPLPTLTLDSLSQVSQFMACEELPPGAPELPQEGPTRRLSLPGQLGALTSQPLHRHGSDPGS

Nc1nc2cnc(C(=O)N3CC4(CC4)C[C@@H]4Oc5cc(C(F)(F)F)ccc5[C@@H]43)cc2n2cncc12 [Ff-648, (4-aminoimidazo[1,5-a]pyrido[3,4-e]pyrazin-8-yl)((4aS,9bS)-7-(trifluoromethyl)-4a,9b-dihydro-2H-spiro[benzofuro[3,2-b]pyridine-3,1′-cyclopropan]-1(4H)-yl)methanone]
IC50 (hERG): 30 µM

Nc1nc2cnc(C(=O)N3CCC[C@@H]4Oc5cc(C(F)(F)F)cc(F)c5[C@@H]43)cc2n2cncc12 (single isomer, unassigned) [Fg-53]
Predicted Hepatocyte CL [1]: 3 mL/min/kg | half-life ([2]; IV 0.25 mg/Kg): 3.8 h | clearance ([2]; IV 0.25 mg/Kg): 6.33 mL/min/kg | Vd ([2]; IV 0.25 mg/Kg): 1.97 L/kg | bioavailability [2]: 73%

C[C@H]1CN(C(=O)c2cc3c(cc2F)nc(N)c2cncn23)[C@H]2c3ccc(C(F)(F)F)cc3C[C@H]2O1 (single isomer, unassigned) [Ff-81]
Predicted Hepatocyte CL [1]: 2.5 mL/min/kg | half-life ([2]; IV 0.5 mg/Kg): 7.9 h | clearance ([2]; IV 0.5 mg/Kg): 4.33 mL/min/kg | bioavailability [2]: 134%

Nc1nc2cnc(C(=O)N3CCC[C@@H]4Oc5cc(OC(F)(F)F)cc(F)c5[C@@H]43)cc2n2cncc12 (single isomer, unassigned) [Fg-55]
Predicted Hepatocyte CL [1]: 4.17 mL/min/kg | half-life ([2]; IV 0.25 mg/Kg): 6 h | clearance ([2]; IV 0.25 mg/Kg): 4.33 mL/min/kg | Vd ([2]; IV 0.25 mg/Kg): 1.8 L/kg

Nc1nc2cc(F)c(C(=O)N3CCC[C@@H]4Oc5cc(C(F)(F)F)ccc5[C@@H]43)cc2n2cncc12 [Ff-104, (4-amino-7-fluoroimidazo[1,5-a]quinoxalin-8-yl)((4aS,9bS)-7-(trifluoromethyl)-3,4,4a,9b-tetrahydrobenzofuro[3,2-b]pyridin-1(2H)-yl)methanone]
Predicted Hepatocyte CL [1]: 4.83 mL/min/kg and 4.67 mL/min/kg | half-life ([2]; IV 0.25 mg/Kg): 3.9 h | clearance ([2]; IV 0.25 mg/Kg): 6.5 mL/min/kg | Vd ([2]; IV 0.25 mg/Kg): 1.78 L/kg | half-life ([2]; IV 0.5 mg/Kg): 8.7 h | clearance ([2]; IV 0.5 mg/Kg): 3.17 mL/min/kg | Vd ([2]; IV 0.5 mg/Kg): 2 L/kg | bioavailability [2]: 68%

Cc1ncc2c(N)nc3cnc(C(=O)N4CCC[C@@H]5Oc6cc(OC(F)(F)F)ccc6[C@@H]54)cc3n12 [Ff-340, (4-amino-1-methylimidazo[1,5-a]pyrido[3,4-e]pyrazin-8-yl)((4aS,9bS)-7-(trifluoromethoxy)-3,4,4a,9b-tetrahydrobenzofuro[3,2-b]pyridin-1(2H)-yl)methanone]
Predicted Hepatocyte CL [1]: 3.3 mL/min/kg

Nc1nc2ccc(C(=O)N3CCC[C@@H]4Oc5cc(C(F)(F)F)ccc5[C@@H]43)cc2n2cncc12 [Ff-111, (4-aminoimidazo[1,5-a]quinoxalin-8-yl)((4aS,9bS)-7-(trifluoromethyl)-3,4,4a,9b-tetrahydrobenzofuro[3,2-b]pyridin-1(2H)-yl)methanone]
Predicted Hepatocyte CL [1]: 4.67 mL/min/kg

Cc1ncn2c1c(N)nc1cnc(C(=O)N3CCC[C@@H]4Oc5cc(C(F)(F)F)ccc5[C@@H]43)cc12 [Ff-499, (4-amino-3-methylimidazo[1,5-a]pyrido[3,4-e]pyrazin-8-yl)((4aS,9bS)-7-(trifluoromethyl)-3,4,4a,9b-tetrahydrobenzofuro[3,2-b]pyridin-1(2H)-yl)methanone]
Predicted Hepatocyte CL [1]: 15.3 mL/min/kg

Nc1nc2cnc(C(=O)N3CCC[C@@H]4Oc5cc(OC(F)(F)F)ccc5[C@@H]43)cc2n2cncc12 [Ff-341, (4-aminoimidazo[1,5-a]pyrido[3,4-e]pyrazin-8-yl)((4aS,9bS)-7-(trifluoromethoxy)-3,4,4a,9b-tetrahydrobenzofuro[3,2-b]pyridin-1(2H)-yl)methanone]
Predicted Hepatocyte CL [1]: 5.67 mL/min/kg
